In patent US6545131B1, “Tissue specific prodrug” (priority 1997, dated 2003):
Starred links: 1 amine or outer side, 2 acyl side, 3 side chain; linkers in the order of their positions; H or OH if unused. Residues, ends and D or L forms follow the SMILES beside them. *: point of attachment. Mu = morpholinocarbonyl, O=C(N1CCOCC1)*; AMC = Cc1cc(=O)oc2cc(N*)ccc12; Morpholide = C1CN(*)CCO1; CO = O=C([*:1])[*:2]

Columns and labels:
TSU-Pr1 cells = assay: Clonogenic survival of TSU-Pr1 cells after 72 hours exposure to TG analogs; assay type: cell-based, human; conditions: TSU-Pr1, 72 hours exposure; mean (n=5) ± standard error; read-out: LC50 (concentration needed to kill 50% of clonogenic cells)
Method: The primary amine-containing thapsigargin analogs of the invention have non-specific toxicity toward cells. This toxicity is measured as the concentration of analog needed to kill 50% of clonogenic cells (LC50). The LC50 of the analogs of the invention is desirably at most 20 μM, preferably at most 5 μM, and more preferably at most 500 nM of analog.
Percentage clonogenic survival of TSU-Pr1 (2×10^5 cells) following 72 hours of exposure to varying concentrations of TG analogs was performed as described in Martikainen et al. Cancer Res., 51, 4693-4700 (1991).
The IC50 results are mean (n=3)±standard error. The LC50 results are mean (n=5)±standard error. The entry “ND” stands for “not determined”. Clonogenic survival not determined above 10 μM for dBTG. Analogs with −boc have a t-butoxycarbonyl (boc) protected amino group.
The androgen responsive PSA-producing LNCaP and androgen independent PSA non-producing TSU-Pr1 are human prostate cancer lines were obtained from ATCC (Rockville, Md.) and maintained by serial passage in RPMI 1640 media containing 10% fetal calf serum with 100 units/ml penicillin G, and 100 units/ml streptomycin sulfate (antibiotics from M.A. Bioproducts, Walkerville, Md.) as standard media in 5% CO2/95% air at 37° C. The origins and characteristics of the LNCaP and TSU-Pr1 cell lines are described in Horoszewicz, et al., Cancer Res., 43:1809-1818, (1980)and Iizumi, et al., J. Urol, 137: 1304-1306, (1987).

[1] = target: T1, PSA (prostate specific antigen) (Homo sapiens, UniProt P07288); assay: Cleavage of AMC-labelled peptide substrates by purified PSA (fluorescence of released AMC; Lineweaver-Burke kinetics); assay type: biochemical; conditions: 0.2 mM substrate
T1 construct: PSA was purified from human seminal plasma; from tissue; host or cells: human seminal plasma
Method: (§1) The peptides discussed herein were custom synthesized by Enzyme Systems Products (Dublin, Calif.) and, after HPLC separation and purification to >95%, the molecular weights were confirmed by mass spectroscopy. All peptides had morpholinocarbonyl protecting the amino terminus and 7-amino-4-methylcoumarin (AMC) attached via an amide bond to the carboxyl group of the carboxy-terminal amino acid. Peptides were first dissolved in distilled water (5 mM) and then diluted into PSA assay buffer (50 mM Tris/0.1M NaCl pH 7.8). The glutamine-AMC peptide had the amino terminus and side chain amine unprotected and was obtained from Bachem (Torrance, Calif.).
(§2) PSA was purified from human seminal plasma as described in Christensson, et al. Eur. J. Biochem. 194:755-765, (1990). Plasmin, urokinase, tissue plasminogen activator (TPA), human plasma and porcine pancreatic kallikrein and a 1-antichymotrypsin were obtained from Calbiochem (San Diego, Calif.). All other proteases were obtained from Sigma Chemical Co. (St. Louis, Mo.). Mouse serum was obtained from East Acres Biologicals (South Bridge, Mass.). Goat and calf sera were obtained from Gibco BRL (Grand Island, N.Y.). Rat serum was obtained in-house from sacrificed animals. Human serum was obtained from volunteers.
(§3) Cleavage was studied by measuring fluorescence change secondary to AMC release. Fluorescence detection was carried out with a Fluoroskan II 96 well fluorometric plate reader (ICN Biomedicals, Costa Mesa, Calif.), with excitation wavelength 355 nm and emission wavelength 460 nm. Data were collected and analyzed using Deltasoft III software (Biometallics, Princeton, N.J.). All reactions were performed at room temperature by the addition of substrate and proteases into PSA buffer, described below, in a final volume of 200 μL. The results were determined from the initial linear increase of fluorescence and were expressed as the picomoles of AMC released per minute based upon comparison to a standard curve of the fluorescence of known amounts of AMC (i.e., fluorescence was linear form 20 to 300 picomoles of AMC). The data were analyzed by Lineweaver-Burke reciprocal plots to determine the Michaelis-Menten constant (i.e., Km) expressed as the amount of substrate needed to saturate half of the enzyme and the catalytic rate constant (i.e., kcat) expressed as the amount of substrate converted to product per time per amount of enzyme.
(§4) Each assay contains 200 picomoles of the particular protease and 0.2 mM concentration of the particular substrate (i.e., 40,000 picomoles/200 μL of assay volume). The amino acid sequences expressed in one letter amino acid code represent the following amino acid sequences in the three letter amino acid code: EHSSKLQ (Glu-His-Ser-Ser-Lys-Leu-Gln; SEQ ID NO:10), QNKISYQ (Gln-Asn-Lys-Ile-Ser-Tyr-Gln; SEQ ID NO:11), ENKISYQ (Glu-Asn-Lys-Ile-Ser-Tyr-Gln; SEQ ID NO:12), and ATKSKQH (Ala-Thr-Lys-Ser-Lys-Gln-His; SEQ ID NO:13). Determinations listed in the table were carried out with substrates at 0.2 mM concentration in the PSA assay buffer (50 mM Tris/0.1M NaCl pH 7.8). The entry “UD” stands for “undetectable” and means that at most, 0.1 pmole of substrate cleavage per minute per 200 pmole protease took place. Asterisks represent experiments not performed. Abbreviations are as follows: PSA (prostate specific antigen), Chymo (chymotrypsin), Urokin (urokinase), TPA (tissue plasminogen activator), Thromb (thrombin), Kallik (human kallikrein, hK1).
The data in Table 2 are the results of kinetic experiments with the peptide substrates used in Example 1. Experimental details are found in Example 1.
The amino acid sequences expressed in one letter amino acid code represent the following amino acid sequences in the three letter amino acid code: EHSSKLQ (Glu-His-Ser-Ser-Lys-Leu-Gln; SEQ ID NO:10), HSSKLQ (His-Ser-Ser-Lys-Leu-Gln; SEQ ID NO:7), SKLQ (Ser-Lys-Leu-Gln; SEQ ID NO:1), and ATKSKQH (Ala-Thr-Lys-Ser-Lys-Gln-His; SEQ ID NO:13). […]

Elastase = assay: Peptide-AMC cleavage by purified extracellular protease; assay type: biochemical; conditions: 0.2 mM substrate, PSA assay buffer pH 7.8
Method: as §1, §2, §3, §4

Plasmin = target: T2, Plasmin (Homo sapiens, UniProt P00747); assay: as above; assay type: biochemical; conditions: 0.2 mM substrate, PSA assay buffer pH 7.8
T2 construct: purchased Calbiochem
Method: as §1, §2, §3, §4

Trypsin = assay: as above; assay type: biochemical; conditions: 0.2 mM substrate, PSA assay buffer pH 7.8
Method: as §1, §2, §3, §4

chymotrypsin = target: T3, chymotrypsin (Bos taurus, UniProt P00766); assay: as above; assay type: biochemical; conditions: 0.2 mM substrate, PSA assay buffer pH 7.8
T3 construct: purchased Sigma Chemical Co
Method: as §1, §2, §3, §4

thrombin = target: T4, thrombin (Homo sapiens, UniProt P00734); assay: as above; assay type: biochemical; conditions: 0.2 mM substrate, PSA assay buffer pH 7.8
T4 construct: purchased Sigma Chemical Co
Method: as §1, §2, §3, §4

[2] = target: T5, tissue plasminogen activator (TPA) (Homo sapiens, UniProt P00750); assay: as above; assay type: biochemical; conditions: 0.2 mM substrate, PSA assay buffer pH 7.8
T5 construct: purchased Calbiochem
Method: as §1, §2, §3, §4

[3] = Stability of PSA substrates in serum (AMC release); assay type: in vitro ADME; conditions: 0.2 mM substrate
Text: as §2, §3
Because the prodrug can be given systemically via the blood, it is useful to determine the stability of the substrates in sera from a variety of species. The substrates and experimental details are found as described in Example 1.
The amino acid sequences expressed in one letter amino acid code represent the following amino acid sequences in the three letter amino acid code: EHSSKLQ (Glu-His-Ser-Ser-Lys-Leu-Gln; SEQ ID NO:10), QNKISYQ (Gln-Asn-Lys-Ile-Ser-Tyr-Gln; SEQ ID NO:11), ENKISYQ (Glu-Asn-Lys-Ile-Ser-Tyr-Gln; SEQ ID NO:12) and ATKSKQH (Ala-Thr-Lys-Ser-Lys-Gln-His; SEQ ID NO:13). Determinations listed in the table were carried out with substrates at 0.2 mM concentration in the PSA assay buffer (50 mM Tris/0.1M NaCl pH 7.8). AMC is 7-amino-4-methylcoumarin. The human serum used was 100% for each assay. The entry “UD” stands for “undetectable”, and means that not more than 0.01 picomole of substrate per minute was cleaved.

Cathepsin B = target: T6, Cathepsin B (Homo sapiens, UniProt P07858); assay: PSA substrate cleavage by purified intracellular protease; assay type: biochemical; conditions: 0.2 mM substrate, pH 7.8; SKLQ, KLQ, LQ in 1.4% acetonitrile/buffer, Q-AMC in 0.2% formic acid/buffer
T6 construct: purchased Sigma Chemical Co
Method: as §3
(§5) A family of peptide substrates based upon the EHSSKLQ (SEQ ID NO:10) sequence was assayed for activity for the intracellular proteases, and the results given in Table 4.
(§6) The amino acid sequences expressed in one letter amino acid code represent the following amino acid sequences in the three letter amino acid code: EHSSKLQ (Glu-His-Ser-Ser-Lys-Leu-Gln; SEQ ID NO:10), The shorter sequences are formed by deleting amino acids from the amino terminal side of the sequence. Determinations listed in the table were carried out with substrates at 0.2 mM concentration in the PSA assay buffer (50 mM Tris/0.1M NaCl pH 7.8), except SKLQ (SEQ ID NO:1), KLQ and LQ, which were carried out in 1.4% acetonitrile/buffer and Q-AMC which was carried out in 0.2% formic acid/buffer, at pH 7.8. The entry “UD” stands for “undetectable” and means that at most, 0.1 pmole of substrate cleavage per minute per 200 pmole protease took place. Asterisks represent experiments not performed. Abbreviations are as follows: PSA (prostate specific antigen), Cath B, C, D (Cathepsins, B, C, D), Esterase (porcine liver esterase).

Cathepsin C = target: T7, Cathepsin C (Homo sapiens, UniProt P53634); assay: as above; assay type: biochemical; conditions: 0.2 mM substrate, pH 7.8; SKLQ, KLQ, LQ in 1.4% acetonitrile/buffer, Q-AMC in 0.2% formic acid/buffer
T7 construct: purchased Sigma Chemical Co
Method: as §3, §5, §6

porcine liver esterase = assay: as above; assay type: biochemical; conditions: 0.2 mM substrate, pH 7.8; SKLQ, KLQ, LQ in 1.4% acetonitrile/buffer, Q-AMC in 0.2% formic acid/buffer
Method: as §3, §5, §6

T1 sequence (P07288 25-261): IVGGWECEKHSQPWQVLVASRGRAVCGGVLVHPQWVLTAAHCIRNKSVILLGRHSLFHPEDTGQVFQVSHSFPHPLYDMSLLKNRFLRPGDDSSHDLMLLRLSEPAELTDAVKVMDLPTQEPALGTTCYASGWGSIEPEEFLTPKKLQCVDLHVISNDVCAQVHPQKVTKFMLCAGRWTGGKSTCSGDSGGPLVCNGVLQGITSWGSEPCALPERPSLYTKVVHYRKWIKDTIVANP
T2 sequence (P00747 581-810 limits assumed, species assumed): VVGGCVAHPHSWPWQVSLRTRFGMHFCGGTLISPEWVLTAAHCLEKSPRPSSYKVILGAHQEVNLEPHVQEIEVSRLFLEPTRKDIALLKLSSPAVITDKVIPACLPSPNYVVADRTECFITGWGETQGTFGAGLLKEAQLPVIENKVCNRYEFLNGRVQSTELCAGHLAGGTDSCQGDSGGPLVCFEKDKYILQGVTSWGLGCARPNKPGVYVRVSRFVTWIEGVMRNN
T2 sequence (P00747 97-580 partner limits assumed, species assumed): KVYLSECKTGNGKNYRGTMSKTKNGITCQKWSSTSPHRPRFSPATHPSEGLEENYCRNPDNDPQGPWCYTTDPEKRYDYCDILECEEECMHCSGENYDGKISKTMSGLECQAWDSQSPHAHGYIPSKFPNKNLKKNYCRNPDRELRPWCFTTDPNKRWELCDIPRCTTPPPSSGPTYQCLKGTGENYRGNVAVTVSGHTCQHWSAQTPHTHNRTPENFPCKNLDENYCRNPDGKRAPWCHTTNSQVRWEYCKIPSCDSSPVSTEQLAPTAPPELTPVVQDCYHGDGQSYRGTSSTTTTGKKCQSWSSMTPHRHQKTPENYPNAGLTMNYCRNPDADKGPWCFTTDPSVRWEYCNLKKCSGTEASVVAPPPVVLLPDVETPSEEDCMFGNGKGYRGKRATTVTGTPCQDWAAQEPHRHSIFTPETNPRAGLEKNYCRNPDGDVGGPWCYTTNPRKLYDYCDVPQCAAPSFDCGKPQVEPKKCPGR
T7 sequence (P53634 25-463): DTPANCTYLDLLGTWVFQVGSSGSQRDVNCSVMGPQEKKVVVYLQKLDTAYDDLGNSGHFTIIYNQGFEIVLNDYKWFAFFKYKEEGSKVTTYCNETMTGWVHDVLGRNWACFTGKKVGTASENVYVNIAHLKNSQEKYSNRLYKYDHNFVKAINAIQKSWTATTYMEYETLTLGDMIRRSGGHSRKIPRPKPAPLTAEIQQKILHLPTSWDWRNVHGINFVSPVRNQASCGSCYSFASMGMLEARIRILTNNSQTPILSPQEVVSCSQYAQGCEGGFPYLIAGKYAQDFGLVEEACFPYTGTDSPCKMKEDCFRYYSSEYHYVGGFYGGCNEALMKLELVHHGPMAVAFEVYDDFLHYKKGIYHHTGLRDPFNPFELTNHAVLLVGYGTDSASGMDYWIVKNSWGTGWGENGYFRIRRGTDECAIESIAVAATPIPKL
T5 sequence (P00750 36-562, species assumed): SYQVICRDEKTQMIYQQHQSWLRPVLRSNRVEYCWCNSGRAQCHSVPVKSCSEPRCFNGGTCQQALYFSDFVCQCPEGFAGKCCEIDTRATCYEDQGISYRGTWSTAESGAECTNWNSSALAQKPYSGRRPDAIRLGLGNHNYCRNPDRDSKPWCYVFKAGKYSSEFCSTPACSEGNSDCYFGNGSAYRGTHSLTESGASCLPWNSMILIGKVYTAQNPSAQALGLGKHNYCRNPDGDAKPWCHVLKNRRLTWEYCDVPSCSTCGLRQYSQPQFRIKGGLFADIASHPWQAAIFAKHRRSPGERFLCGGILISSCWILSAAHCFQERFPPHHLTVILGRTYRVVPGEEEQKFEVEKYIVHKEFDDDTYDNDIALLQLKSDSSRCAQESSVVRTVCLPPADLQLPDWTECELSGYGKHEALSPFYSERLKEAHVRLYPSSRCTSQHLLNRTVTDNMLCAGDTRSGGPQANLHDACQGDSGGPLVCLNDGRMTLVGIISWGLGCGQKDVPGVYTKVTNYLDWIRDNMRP

8-O-(2-[4-t-butoxycarbonylaminophenyl]acetyl)-8-O-debutanoylthapsigargin [AAT-boc]
CC50 (TSU-Pr1 cells): > 10 µM

C/C=C(/C)C(=O)OC1C(C)=C2C(C1OC(=O)CCCCCCC)C(C)(OC(C)=O)CC(OC(=O)Cc1ccc(N)cc1)C1(O)C2OC(=O)C1(C)O (centres unmarked) [AAT, 8-O-(2-[4-aminophenyl]acetyl)-8-O-debutanoylthapsigargin]
CC50 (TSU-Pr1 cells): > 10 µM

C/C=C(/C)C(=O)OC1C(C)=C2C(C1OC(=O)CCCCCCC)C(C)(OC(C)=O)CC(OC(=O)c1ccc(NC(=O)OC(C)(C)C)cc1)C1(O)C2OC(=O)C1(C)O (centres unmarked) [ABT-boc, 8-O-(4-t-butoxycarbonylaminobenzoyl)-8-O-debutanoylthapsigargin]
CC50 (TSU-Pr1 cells): 12 ± 0.3 µM

CC[C@H](C)[C@H](NC(=O)[C@H](CCCCN)NC(=O)[C@H](CC(N)=O)NC(=O)[C@H](CCC(N)=O)NC(=O)N1CCOCC1)C(=O)N[C@@H](CO)C(=O)N[C@@H](Cc1ccc(O)cc1)C(=O)N[C@@H](CCC(N)=O)C(=O)Nc1ccc2c(C)cc(=O)oc2c1 [QNKISYQ, Gln-Asn-Lys-Ile-Ser-Tyr-Gln] ({Morpholide-CO}-QNKISYQ-{AMC})
Picomoles of substrate cleaved/minute/200 pmoles of indicated protease: PSA ([1]; PSA assay buffer pH 7.8, room temperature): 16.8 picomoles/minute/200 pmoles pr | Picomoles of substrate cleaved/minute/200 pmoles of indicated protease: Elastase (Elastase): 9.0 picomoles/minute/200 pmoles pr | Picomoles of substrate cleaved/minute/200 pmoles of indicated protease: Plasmin (Plasmin): UD (at most, 0.1 pmole of substrate cleavage per minute per 200 pmole protease took place) | Picomoles of substrate cleaved/minute/200 pmoles of indicated protease: Trypsin (Trypsin): UD (at most, 0.1 pmole of substrate cleavage per minute per 200 pmole protease took place) | Picomoles of substrate cleaved/minute/200 pmoles of indicated protease: Chymo (chymotrypsin): 9.0 picomoles/minute/200 pmoles pr | Picomoles of substrate cleaved/minute/200 pmoles of indicated protease: Thromb (thrombin): 0.4 picomoles/minute/200 pmoles pr | Picomoles of substrate cleaved/minute/200 pmoles of indicated protease: TPA [2]: 0.4 picomoles/minute/200 pmoles pr | picomles AMC released/minute: Calf [3]: UD (not more than 0.01 picomole of substrate per minute was cleaved) | picomles AMC released/minute: Fetal Calf [3]: 11.60 picomoles/minute | picomles AMC released/minute: Goat [3]: 5.54 picomoles/minute | picomles AMC released/minute: Mouse [3]: 1.67 picomoles/minute | picomles AMC released/minute: Rat [3]: 10.7 picomoles/minute | picomles AMC released/minute: Human ([3]; human serum 100%): 1.54 picomoles/minute

KLQ: shorter sequence formed by deleting amino acids from the amino terminal side of EHSSKLQ; AMC substrate (Mu-Lys-Leu-Gln-{AMC}; also: AMC substrate)
picomoles of peptide cleaved/min/200 picomoles protease: PSA ([1]; pH 7.8, SKLQ, KLQ, LQ in 1.4% acetonitrile/buffer, Q-AMC in 0.2% formic acid/buffer): 0.4 picomoles/min/200 picomoles pr | picomoles of peptide cleaved/min/200 picomoles protease: Cath B (Cathepsin B): 87.0 picomoles/min/200 picomoles pr | picomoles of peptide cleaved/min/200 picomoles protease: Cath C (Cathepsin C): UD (at most, 0.1 pmole of substrate cleavage per minute per 200 pmole protease took place) | picomoles of peptide cleaved/min/200 picomoles protease: Esterase (porcine liver esterase): UD (at most, 0.1 pmole of substrate cleavage per minute per 200 pmole protease took place)
